Measured values as given in article PMC11144196, “Structural basis for human mitochondrial tRNA maturation” (Nature Communications, 2024).
Each block holds one molecule with its values, some of them ahead of it.

What was measured:
[1] = biological target: T1, TRMT10C/SDR5C1 complex (SAM/SAH site in TRMT10C) (Homo sapiens, UniProt Q7L0Y3); assay: 3H-methyl transfer to pre-tRNA, scintillation counting; format: biochemical; settings: pre-tRNA-Ile (G9) or pre-tRNA-His-Ser (A9), pH 8.5, 5 mM MgCl2, 37 °C; labelled compound
T1 construct: TRMT10C residues 40-403 (no mitochondrial transport signal) co-expressed with SDR5C1 residues 1-261 in E. coli; 2:4 TRMT10C:SDR5C1; HisTrap purified; with 3-hydroxyacyl-CoA dehydrogenase type-2
T1 sequence (Q7L0Y3 40-403): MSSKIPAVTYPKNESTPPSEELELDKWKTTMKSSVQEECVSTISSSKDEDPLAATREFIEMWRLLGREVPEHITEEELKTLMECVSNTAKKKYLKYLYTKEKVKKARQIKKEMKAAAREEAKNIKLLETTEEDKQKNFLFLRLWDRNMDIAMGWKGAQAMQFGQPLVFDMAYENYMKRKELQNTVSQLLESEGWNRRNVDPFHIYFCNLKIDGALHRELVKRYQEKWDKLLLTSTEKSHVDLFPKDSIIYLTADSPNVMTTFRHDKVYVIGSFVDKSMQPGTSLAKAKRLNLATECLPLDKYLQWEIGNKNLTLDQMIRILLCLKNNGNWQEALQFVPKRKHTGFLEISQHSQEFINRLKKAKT
T1 sequence (Q99714 1-261 partner): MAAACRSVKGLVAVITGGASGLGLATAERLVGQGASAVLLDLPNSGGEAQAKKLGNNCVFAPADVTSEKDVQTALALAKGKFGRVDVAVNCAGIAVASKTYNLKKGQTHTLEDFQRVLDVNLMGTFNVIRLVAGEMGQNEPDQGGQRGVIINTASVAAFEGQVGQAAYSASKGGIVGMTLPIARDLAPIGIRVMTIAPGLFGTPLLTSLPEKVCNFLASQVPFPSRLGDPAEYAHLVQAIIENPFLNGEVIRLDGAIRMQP

TRNT1 [2] = biological target: T2, TRNT1 (Homo sapiens, UniProt Q96Q11); assay: differential scanning fluorimetry (SYPRO Orange); format: binding; settings: 5 uM protein, pH 7.5, 150 mM NaCl; thermal stabilisation
T2 construct: residues 42-434, no mitochondrial transport signal; N-terminal His6-TEV tag cleaved; E. coli KRX
T2 sequence (Q96Q11 42-434): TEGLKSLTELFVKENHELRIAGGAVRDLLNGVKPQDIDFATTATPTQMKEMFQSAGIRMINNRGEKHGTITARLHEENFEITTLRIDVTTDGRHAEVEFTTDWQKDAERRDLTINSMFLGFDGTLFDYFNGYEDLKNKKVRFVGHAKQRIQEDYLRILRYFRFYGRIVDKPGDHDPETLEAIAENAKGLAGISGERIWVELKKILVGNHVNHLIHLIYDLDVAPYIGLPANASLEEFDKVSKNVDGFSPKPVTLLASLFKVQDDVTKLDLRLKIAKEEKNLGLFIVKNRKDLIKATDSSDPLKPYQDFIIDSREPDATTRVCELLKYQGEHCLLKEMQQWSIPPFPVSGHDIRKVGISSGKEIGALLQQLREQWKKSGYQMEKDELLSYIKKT

TRNT1 [3] = biological target: T2, TRNT1; assay: cryo-EM structure; format: binding; settings: TRNT1 active site; complex with TRMT10C(SAH)/SDR5C1(NADH)/tRNA-Ile; 0.5 mM CDP, pH 8.0
[4] = biological target: T1, TRMT10C/SDR5C1 complex (SAM/SAH site in TRMT10C); assay: differential scanning fluorimetry (SYPRO Orange); format: binding; settings: 5 uM protein, pH 7.5, 150 mM NaCl; thermal stabilisation
[5] = biological target: T1, TRMT10C/SDR5C1 complex (SAM/SAH site in TRMT10C); assay: cryo-EM structure; format: binding; settings: methyltransferase active site of TRMT10C; with NADH and pre-tRNA-Ile (8CBO); also with PRORP D479A (8CBK), ELAC2 H548A (8CBL) or TRNT1 (8CBM)
[6] = biological target: T3, TRMT10C/SDR5C1 complex (NADH site in SDR5C1) (Homo sapiens, UniProt Q99714); assay: differential scanning fluorimetry (SYPRO Orange); format: binding; settings: 5 uM protein, pH 7.5, 150 mM NaCl; thermal stabilisation
T3 construct: gene HSD17B10; SDR5C1 residues 1-261 co-expressed with TRMT10C residues 40-403 in E. coli; SDR5C1 tetramer; HisTrap purified; with tRNA methyltransferase 10 homolog C
T3 sequence (Q99714 1-261): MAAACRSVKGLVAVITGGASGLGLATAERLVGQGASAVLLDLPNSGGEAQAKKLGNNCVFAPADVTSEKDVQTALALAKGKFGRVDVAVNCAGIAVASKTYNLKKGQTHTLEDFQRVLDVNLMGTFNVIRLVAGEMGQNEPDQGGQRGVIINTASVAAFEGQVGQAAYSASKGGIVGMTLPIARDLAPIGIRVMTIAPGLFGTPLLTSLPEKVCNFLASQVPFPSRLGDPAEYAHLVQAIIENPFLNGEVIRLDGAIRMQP
T3 sequence (Q7L0Y3 40-403 partner): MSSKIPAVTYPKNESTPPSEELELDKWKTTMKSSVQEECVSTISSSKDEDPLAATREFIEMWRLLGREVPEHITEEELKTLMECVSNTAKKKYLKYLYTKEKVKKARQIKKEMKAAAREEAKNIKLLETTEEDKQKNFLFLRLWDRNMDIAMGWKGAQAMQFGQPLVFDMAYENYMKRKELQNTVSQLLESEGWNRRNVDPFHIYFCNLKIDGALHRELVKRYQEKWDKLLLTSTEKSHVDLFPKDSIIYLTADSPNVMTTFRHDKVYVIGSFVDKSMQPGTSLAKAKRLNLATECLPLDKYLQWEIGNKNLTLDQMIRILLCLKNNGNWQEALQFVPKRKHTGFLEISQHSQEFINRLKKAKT

[7] = biological target: T4, ELAC2 H548A (residues 31-826) (human, UniProt Q9BQ52 31-826, H548A); assay: cryo-EM structure; Complex 3: 1 uM TRMT10C/SDR5C1, 10 uM SAH, 10 uM NADH, 5 uM pre-tRNA^His(0,Ser), then 5 uM ELAC2 H548A; 50 mM Tris pH 8.0, 100 mM NaCl, 1 mM TCEP; ELAC2 sits on the pre-tRNA held by the subcomplex; settings: both partners purified
T4 construct: human ELAC2 (long-form RNase Z), UniProt Q9BQ52, residues 31-826; pET28a-derived vector, His6-TEV site; treated with TEV protease; also called mt-RNase Z; source: E. coli KRX, purified like WT (HisTrap, Resource Q, TEV, SEC); not shown: His6, N-terminal, cleaved
T4 sequence (looked up): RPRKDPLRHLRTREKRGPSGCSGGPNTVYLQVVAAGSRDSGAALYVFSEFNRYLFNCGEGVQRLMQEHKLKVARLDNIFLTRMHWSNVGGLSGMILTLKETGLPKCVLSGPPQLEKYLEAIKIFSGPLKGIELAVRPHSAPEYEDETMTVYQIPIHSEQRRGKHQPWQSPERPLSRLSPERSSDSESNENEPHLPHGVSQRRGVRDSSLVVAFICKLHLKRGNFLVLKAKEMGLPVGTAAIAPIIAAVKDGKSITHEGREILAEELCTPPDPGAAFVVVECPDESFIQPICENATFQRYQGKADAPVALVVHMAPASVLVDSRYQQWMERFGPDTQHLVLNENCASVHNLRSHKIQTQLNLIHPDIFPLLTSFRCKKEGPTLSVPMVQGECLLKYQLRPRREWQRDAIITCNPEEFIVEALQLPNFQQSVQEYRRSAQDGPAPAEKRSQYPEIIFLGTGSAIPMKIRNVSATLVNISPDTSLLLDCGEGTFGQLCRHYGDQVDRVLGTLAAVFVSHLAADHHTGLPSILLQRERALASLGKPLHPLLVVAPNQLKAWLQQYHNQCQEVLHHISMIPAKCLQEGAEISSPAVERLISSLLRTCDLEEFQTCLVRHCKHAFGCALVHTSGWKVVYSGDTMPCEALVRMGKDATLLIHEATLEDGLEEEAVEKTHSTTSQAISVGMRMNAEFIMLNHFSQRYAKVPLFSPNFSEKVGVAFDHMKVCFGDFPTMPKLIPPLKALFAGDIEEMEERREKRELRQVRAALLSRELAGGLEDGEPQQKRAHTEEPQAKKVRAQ

[8] = biological target: T5, PRORP D479A (residues 45-583) (human, UniProt O15091 45-583, D479A); assay: cryo-EM structure; Complex 2: 4 uM TRMT10C/SDR5C1, 40 uM SAH, 40 uM NADH, 20 uM pre-tRNA^His-Ser, then 10 uM PRORP D479A; 50 mM Tris pH 8.0, 100 mM NaCl, 1 mM TCEP; PRORP sits on the pre-tRNA held by the subcomplex; settings: both partners purified
T5 construct: human PRORP (protein-only RNase P endoribonuclease), UniProt O15091, residues 45-583; pET28a-derived vector, His6-TEV site; treated with TEV protease; source: E. coli BL21(DE3) Rosetta, purified like WT (HisTrap, TEV, SEC); not shown: His6, N-terminal, cleaved
T5 sequence (looked up): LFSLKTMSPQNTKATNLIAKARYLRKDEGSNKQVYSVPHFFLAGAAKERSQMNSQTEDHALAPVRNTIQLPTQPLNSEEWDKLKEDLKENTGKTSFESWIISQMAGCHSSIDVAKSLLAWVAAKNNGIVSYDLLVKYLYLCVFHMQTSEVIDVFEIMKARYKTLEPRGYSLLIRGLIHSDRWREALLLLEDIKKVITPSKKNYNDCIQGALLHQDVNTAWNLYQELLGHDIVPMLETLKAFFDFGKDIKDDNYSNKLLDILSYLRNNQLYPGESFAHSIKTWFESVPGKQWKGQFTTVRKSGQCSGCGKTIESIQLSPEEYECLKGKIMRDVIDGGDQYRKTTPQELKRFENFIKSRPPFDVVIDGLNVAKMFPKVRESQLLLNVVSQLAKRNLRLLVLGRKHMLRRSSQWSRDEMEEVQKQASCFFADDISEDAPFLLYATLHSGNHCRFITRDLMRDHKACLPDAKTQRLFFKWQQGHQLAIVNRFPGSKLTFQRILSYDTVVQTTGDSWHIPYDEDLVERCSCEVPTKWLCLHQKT

Molecule: C[S+](CC[C@H](N)C(=O)O)C[C@H]1O[C@@H](n2cnc3c(N)ncnc32)[C@H](O)[C@@H]1O (stereo partly shown) [SAM]
3H-methyl transfer to pre-tRNA, scintillation counting [1]: Methylation assays, using ^3H-SAM as methyl donor, showed that the TRMT10C/SDR5C1 complex methylates

Molecule: Nc1ccn([C@@H]2O[C@H](COP(=O)(O)OP(=O)(O)O)[C@@H](O)[C@H]2O)c(=O)n1 [CDP]
Tm (TRNT1 [2]): CTP, ATP or CDP to TRNT1 stabilised these enzymes
cryo-EM structure (TRNT1 [3]): a molecule of CDP that is likely π-stacked with the substrate A73 nucleotide

Molecule: Nc1ncnc2c1ncn2[C@@H]1O[C@H](CSCC[C@H](N)C(=O)O)[C@@H](O)[C@H]1O [SAH]
Tm [4]: addition of co-factors or co-factor analogues, i.e. SAH to TRMT10C
cryo-EM structure [5]: In all the structures, the TRMT10C catalytic pocket contains SAH

Molecule: NC(=O)C1=CN([C@@H]2O[C@H](COP(=O)(O)OP(=O)(O)OC[C@H]3O[C@@H](n4cnc5c(N)ncnc54)[C@H](O)[C@@H]3O)[C@@H](O)[C@H]2O)C=CC1 [NADH]
Tm [6]: NADH to SDR5C1 and CTP, ATP or CDP to TRNT1 stabilised these enzymes

Molecule: Nc1ncnc2c1ncn2[C@@H]1O[C@H](COP(=O)(O)OP(=O)(O)OP(=O)(O)O)[C@@H](O)[C@H]1O [ATP]
Tm (TRNT1 [2]): CTP, ATP or CDP to TRNT1 stabilised these enzymes

Molecule: Nc1ccn([C@@H]2O[C@H](COP(=O)(O)OP(=O)(O)OP(=O)(O)O)[C@@H](O)[C@H]2O)c(=O)n1 [CTP]
Tm (TRNT1 [2]): CTP, ATP or CDP to TRNT1 stabilised these enzymes

binding result [7]: binds
binding result [8]: binds
B1: TRMT10C (residues 40-403, without the mitochondrial transport signal) (enzyme, human, UniProt Q7L0Y3 40-403, looked up)
chain: MSSKIPAVTYPKNESTPPSEELELDKWKTTMKSSVQEECVSTISSSKDEDPLAATREFIEMWRLLGREVPEHITEEELKTLMECVSNTAKKKYLKYLYTKEKVKKARQIKKEMKAAAREEAKNIKLLETTEEDKQKNFLFLRLWDRNMDIAMGWKGAQAMQFGQPLVFDMAYENYMKRKELQNTVSQLLESEGWNRRNVDPFHIYFCNLKIDGALHRELVKRYQEKWDKLLLTSTEKSHVDLFPKDSIIYLTADSPNVMTTFRHDKVYVIGSFVDKSMQPGTSLAKAKRLNLATECLPLDKYLQWEIGNKNLTLDQMIRILLCLKNNGNWQEALQFVPKRKHTGFLEISQHSQEFINRLKKAKT
notes: human TRMT10C, tRNA methyltransferase of mitochondrial RNase P, UniProt Q7L0Y3, residues 40-403; The subcomplex was purified on a HisTrap column; also called MTase; source: E. coli BL21(DE3) Rosetta, co-expressed with SDR5C1, purified (HisTrap, SEC, heparin, SEC)
